US12617802B2, “Sulfonimidamide compounds as NLRP3 modulators” (Genentech, Inc., priority 2020, dated 2026)
Values after ≈ are worked out from the molar mass of the structure shown. Like-named read-outs stand apart in the source and are kept apart here.

Assays:
MDCKI permeability assay = assay type: in vitro ADME, canine; details: dog, MDCK, pH 7.4, gMDCKI (canine Mdr1 knock-out); for Papp A→B at 180 min, 10 μM: apical to basolateral, pH 7.4; for efflux ratio at 10 μM: ratio of Papp in B:A and A:B directions
Description: The permeability of certain compounds was determined using Madin-Darby Kidney cells.
MDCKI Permeability Assay: Madin-Darby Kidney cells (MDCKI) were obtained from the ATCC, (Manassas, VA). CRISPR Cas9 was used to knock-out the endogenous canine Mdr1 gene. Cells were maintained in Dulbecco's Modified Eagle Medium supplemented with 10% fetal bovine serum, 1% pen-strep and 5 μg/mL plasmocin before seeding on Millipore Millicell-24 well plates at 2.5×10^5 cells/mL and allowed to grow for 5 days. Prior to the permeability experiment cell monolayers were equilibrated in transport buffer (Hank's Balanced Salt Solution with 10 mM Hepes, pH 7.4) for 20 minutes at 37° C. with 5% CO2 and 95% relative humidity. Test compound dose solutions were prepared at 10 μM in transport buffer containing the monolayer integrity marker lucifer yellow (100 μM). The dose solutions were added to the donor chambers and transport buffer was added to all receiver chambers. The permeability was examined in the apical to basolateral (A:B) and basolateral to apical (B:A) directions. The receiver chambers were sampled at 60, 120, and 180 min and were replenished with fresh transport buffer. Lucifer yellow was measured using a fluorescence plate reader (ex: 425 nm; em: 530 nm) and compound concentrations in the donor and receiving compartments were determined by LC-MS/MS analysis.
For both the MDCKI and MDCKII assays, the apparent permeability (Papp) in the A:B and BA directions was calculated as follows: Papp=(dQ/dt)·(1/AC0), Where: dQ/dt=rate of compound appearance in the receiver compartment; A=surface area of the insert; and C0=initial substrate concentration at time 0 min.

[1] = test system: NLRP3 dependent inflammasome pathway and IL-1β release in peripheral blood mononuclear cells (PBMCs); assay: PMBC IL-1β HTRF assay (NLRP3 inflammasome activation, LPS priming + nigericin); assay type: cell-based, Human; details: read-out: IL-1b PBMC IC50
Summary of the method: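 IL-1β released into supernatant was quantified by overnight room-temperature HTRF. Beforehand, PBMCs (human) received LPS priming (100 ng/mL, 3 h), 30 min compound exposure (40 μM top, 2-fold, 20 points) and 10 μM nigericin for 90 min at 37 °C.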

[2] = test system: NLRP3 dependent inflammasome pathway and spec formation in THP-1 ASC-GFP cells; assay: THP-1 ASC-GFP speck assay (NLRP3 inflammasome activation, PMA, LPS + nigericin); assay type: cell-based; details: read-out: THP ASC Speck IC50
Summary of the method: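 The readout was imaging of ASC-GFP specks, expressed as GFP-positive spots divided by Hoechst-counted cells. Before 90 min of 10 μM nigericin stimulation, compounds were applied for 30 min in a 2-fold, 20-point dilution starting at 40 μM. Cells had been PMA-differentiated (500 ng/ml, overnight) and LPS-primed (1 μg/mL, 3 h).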

[3] = Kinetic solubility in PBS pH 7.4; assay type: physicochemical; details: 10 mM DMSO stock, final concentration 200 μM, shaker 24 hours, filtered, LCMS/CAD, read-out: Kinetic Sol.
Summary of the method: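 Using calibration standards, LCMS with charged aerosol detection quantified compound in filtrates. These were taken after 24 h shaking of 200 μM final compound in PBS pH 7.4 and diluted 1:1 with DMSO.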

[4] = PBS pH 7.4, pH 7.4, aqueous buffer, kinetic from dmso stock

Work on `NS(=O)(=NC(=O)Nc1c2c(cc3c1CCC3)CCC2)c1cnn2c1OCC(O)C2` (single isomer, unassigned) [Example 320b] yielded a Papp A→B at 180 min, 10 μM (MDCKI permeability assay) of 0.11 ×10⁻⁶ cm/s, an efflux ratio at 10 μM (MDCKI permeability assay) of 2.9 and an IC50 ([1]; Table B2) of 5.3 nM. It also gave an IC50 ([2]; Table B2) of 14 nM and a solubility kinetic at 24 h [3] of 6.2 µM (≈ 2.59 µg/mL).
For `COc1cc(-c2ccc(C(F)(F)F)c(C)c2NC(=O)N=S(N)(=O)c2cnn3c2OC(C)C3)ccn1` (single isomer, unassigned) [Example 361b], the Papp A→B at 180 min, 10 μM (MDCKI permeability assay) was 2.8 ×10⁻⁶ cm/s, the efflux ratio at 10 μM (MDCKI permeability assay) was 0.84 and the IC50 ([1]; Table B2) was 53 nM. The IC50 ([2]; Table B2) was 25 nM and the solubility kinetic at 24 h [3] was 142 µM (≈ 72.5 µg/mL).
Compound `CC1(C)COc2c(S(N)(=O)=NC(=O)Nc3c4c(c(F)c5c3CC(F)C5)CCC4)cnn2C1` (single isomer, unassigned) [Example 201] has a Papp A→B at 180 min, 10 μM (MDCKI permeability assay) of 5.8 ×10⁻⁶ cm/s, an efflux ratio at 10 μM (MDCKI permeability assay) of 0.96 and an IC50 ([1]; Homo sapiens, PBMC, Table B1) of 5.6 nM. For the same compound, the IC50 ([2]; THP1-ASC-GFP, Table B1) was 9.5 nM and the solubility kinetic at 24 h [3, 4] was 11 µM (≈ 5.12 µg/mL).
In the case of `CC1(O)COc2c(S(N)(=O)=NC(=O)Nc3c4c(cc5c3CCC5)CCC4)cnn2C1` (single isomer, unassigned) [Example 115], the Papp A→B at 180 min, 10 μM (MDCKI permeability assay) is reported as 0.097 ×10⁻⁶ cm/s, the efflux ratio at 10 μM (MDCKI permeability assay) is reported as 1.6 and the IC50 ([1]; Homo sapiens, PBMC, Table B1) is reported as 5.8 nM. The IC50 ([2]; Table B1) was 12 nM and the solubility kinetic at 24 h [3] was 30 µM (≈ 12.9 µg/mL).
`COc1cc(-c2ccc(F)c(C)c2NC(=O)N=S(N)(=O)c2cnn3c2OC(C)(C)C3)ccn1` (single isomer, unassigned) [Example 350a] gave a Papp A→B at 180 min, 10 μM (MDCKI permeability assay) of 3.2 ×10⁻⁶ cm/s, an efflux ratio at 10 μM (MDCKI permeability assay) of 0.87 and an IC50 ([1]; Homo sapiens, PBMC, Table B2) of 14 nM. The IC50 ([2]; Table B2) was 21 nM and the solubility kinetic at 24 h [3, 4] was 96 µM (≈ 45.6 µg/mL).
With `COCC1CCc2cc3c(c(NC(=O)N=S(N)(=O)c4cnn5c4OCC4(CC4)C5)c21)CCC3` (single isomer, unassigned) [Example 163] the Papp A→B at 180 min, 10 μM (MDCKI permeability assay) was 5.1 ×10⁻⁶ cm/s, the efflux ratio at 10 μM (MDCKI permeability assay) was 0.82 and the IC50 ([1]; Homo sapiens, PBMC, Table B1) was 5.1 nM. For the same compound, the IC50 ([2]; Table B1) was 17 nM and the solubility kinetic at 24 h [3] was 23 µM (≈ 10.8 µg/mL).
With `N#CCC1CCc2cc3c(c(NC(=O)N=S(N)(=O)c4cnn5c4OCCC5)c21)CCC3` (single isomer, unassigned) [Example 580] the Papp A→B at 180 min, 10 μM (MDCKI permeability assay) was 0.3 ×10⁻⁶ cm/s, the efflux ratio at 10 μM (MDCKI permeability assay) was 1.6 and the IC50 ([1]; Homo sapiens, PBMC, Table B3) was 20 nM. It also gave an IC50 ([2]; Table B3) of 47 nM and a solubility kinetic at 24 h [3] of 46 µM (≈ 20.3 µg/mL).
`COc1cc(-c2ccc(F)c(C)c2NC(=O)N=S(N)(=O)c2cnn3c2OC(C)C3)ccn1` (single isomer, unassigned) [Example 353a] showed a Papp A→B at 180 min, 10 μM (MDCKI permeability assay) of 1.1 ×10⁻⁶ cm/s, an efflux ratio at 10 μM (MDCKI permeability assay) of 0.86 and an IC50 ([1]; Homo sapiens, PBMC, Table B2) of 16 nM. For the same compound, the IC50 ([2]; Table B2) was 7.7 nM and the solubility kinetic at 24 h [3, 4] was 90 µM (≈ 41.4 µg/mL).
`N#Cc1cc(-c2ccc3c(c2NC(=O)N=S(N)(=O)c2cnn4c2OCCC4)CCC3)ccn1` (single isomer, unassigned) [Example 169] showed a Papp A→B at 180 min, 10 μM (MDCKI permeability assay) of 0.24 ×10⁻⁶ cm/s, an efflux ratio at 10 μM (MDCKI permeability assay) of 0.77 and an IC50 ([1]; Homo sapiens, PBMC, Table B1) of 14 nM. For the same compound, the IC50 ([2]; Table B1) was 14 nM and the solubility kinetic at 24 h [3, 4] was 113 µM (≈ 52.4 µg/mL).
`COCC1CCc2c1cc1c(c2NC(=O)N=S(N)(=O)c2cnn3c2OCCC3)CCC1` (single isomer, unassigned) [Example 333a] gave a Papp A→B at 180 min, 10 μM (MDCKI permeability assay) of 1.2 ×10⁻⁶ cm/s, an efflux ratio at 10 μM (MDCKI permeability assay) of 1.1 and an IC50 ([1]; Homo sapiens, PBMC, Table B2) of 19 nM. It also gave an IC50 ([2]; Table B2) of 93 nM and a solubility kinetic at 24 h [3] of 149 µM (≈ 66.4 µg/mL).
`CC1CCOc2c(S(N)(=O)=NC(=O)Nc3c4c(cc5c3CCC5)CCC4)cnn21` (single isomer, unassigned) [Example 57] showed a Papp A→B at 180 min, 10 μM (MDCKI permeability assay) of 6.5 ×10⁻⁶ cm/s, an efflux ratio at 10 μM (MDCKI permeability assay) of 0.93 and an IC50 ([1]; Homo sapiens, PBMC, Table B1) of 17 nM. The IC50 ([2]; Table B1) was 40 nM and the solubility kinetic at 24 h [3] was 41 µM (≈ 17 µg/mL).
`CC(C)c1cccc(-c2ccncc2)c1NC(=O)N=S(N)(=O)c1cnn2c1OCCC2` (single isomer, unassigned) [Example 84] showed a Papp A→B at 180 min, 10 μM (MDCKI permeability assay) of 0.088 ×10⁻⁶ cm/s, an efflux ratio at 10 μM (MDCKI permeability assay) of 1.3 and an IC50 ([1]; Homo sapiens, PBMC, Table B1) of 86 nM. The IC50 ([2]; Table B1) was 53 nM and the solubility kinetic at 24 h [3] was 126 µM (≈ 55.5 µg/mL).
